Reference: ChEMBL document CHEMBL1136027, “Design, synthesis and structure-activity relationships of novel imidazolo[1,2-a]pyrimid-5-ones as potent GnRH receptor antagonists” (Bioorg Med Chem Lett, 2002)

How the values were obtained:
[1] = biological target: T1, Gonadotropin-releasing hormone receptor (Homo sapiens, UniProt P30968); experiment: Binding evaluated in cloned human Gonadotropin-releasing hormone receptor by displacement of [125 I-Tyr, DLeu, NMeLeu, Pro-NEt]GnRH agonist
T1 sequence (P30968 whole entry): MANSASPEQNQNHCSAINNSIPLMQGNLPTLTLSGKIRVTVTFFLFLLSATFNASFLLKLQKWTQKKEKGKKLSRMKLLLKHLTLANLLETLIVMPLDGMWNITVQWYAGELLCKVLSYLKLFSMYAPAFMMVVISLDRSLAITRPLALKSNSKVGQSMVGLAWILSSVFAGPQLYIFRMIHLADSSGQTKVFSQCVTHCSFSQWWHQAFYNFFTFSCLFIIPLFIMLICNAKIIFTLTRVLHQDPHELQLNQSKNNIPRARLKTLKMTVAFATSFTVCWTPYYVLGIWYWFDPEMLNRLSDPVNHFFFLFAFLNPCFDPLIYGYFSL

[2] = Half-life in rat plasma was determined; assay type: ADME, organism-based

Row | SMILES | Ki ([1]; read-out: Ki) [nM] | also measured
1 | CCCCN(C)Cc1c(-c2ccc(OC)cc2)nc2n(Cc3ccccc3F)c(C)c(-c3ccc4c(c3)OCO4)c(=O)n12 | 220 | –
2 | COc1ccc(-c2nc3n(Cc4ccccc4F)c(C)c(-c4ccc5c(c4)OCO5)c(=O)n3c2CN(C)Cc2ccccc2)cc1 | 47 | –
3 | CCC(CC)OC(=O)c1cn(Cc2ccccc2F)c2cc(-c3ccc(NC(C)=O)cc3)c(CN(C)CCc3ccccn3)n2c1=O | – | half-life [2]: 28 min
4 | COc1ccc(-c2nc3n(Cc4ccccc4F)c(C)c(-c4ccc5c(c4)OCO5)c(=O)n3c2CN2CCOCC2)cc1 | 28000 | –
5 | COc1ccc(-c2nc3n(Cc4ccccc4F)c(C)c(-c4ccc5c(c4)OCO5)c(=O)n3c2CN(C)CCc2ccncc2)cc1 | 1400 | –
6 | CCC(CC)OC(=O)c1cn(Cc2ccccc2F)c2nc(-c3ccc(OC)cc3)c(CN(C)CCc3ccccn3)n2c1=O | 230 | –
7 | COc1ccc(-c2nc3n(Cc4ccccc4F)c(C)c(-c4ccc5c(c4)OCO5)c(=O)n3c2CN(C)CCc2ccccc2F)cc1 | 67 | –
8 | COCCN(C)Cc1c(-c2ccc(OC)cc2)nc2n(Cc3ccccc3F)c(C)c(-c3ccc4c(c3)OCO4)c(=O)n12 | 150 | –
9 | COc1ccc(-c2nc3n(Cc4ccccc4F)c(C)c(-c4ccc5c(c4)OCO5)c(=O)n3c2CN(C)C2CCN(C)CC2)cc1 | – | Ki [1]: Not Active
10 | CCN(CC)CCN(C)Cc1c(-c2ccc(OC)cc2)nc2n(Cc3ccccc3F)c(C)c(-c3ccc4c(c3)OCO4)c(=O)n12 | 130 | –
11 | COc1ccc(-c2nc3n(Cc4ccccc4F)c(C)c(-c4ccc5c(c4)OCO5)c(=O)n3c2CN(C)CCc2ccccc2)cc1 | 110 | –
12 | COc1ccc(-c2nc3n(Cc4ccccc4F)c(C)c(-c4ccc5c(c4)OCO5)c(=O)n3c2CN2CCCN(C)CC2)cc1 | 9500 | –

Second part, led by results:

Row | Ki ([1]; read-out: Ki) [nM] | SMILES | also measured
13 | 11 | COc1ccc(-c2nc3n(Cc4ccccc4F)c(C)c(-c4ccc5c(c4)OCO5)c(=O)n3c2CN(C)CCc2ccccn2)cc1 | –
14 | 370 | COc1ccc(-c2nc3n(Cc4ccccc4F)c(C)c(-c4cc(OC)c(OC)c(OC)c4)c(=O)n3c2CN(C)CCc2ccccn2)cc1 | –
15 | 18 | COc1ccc(-c2nc3n(Cc4ccccc4F)c(C)c(-c4ccc(OC)cc4)c(=O)n3c2CN(C)CCc2ccccn2)cc1 | –
16 | 100 | COc1ccc(-c2nc3n(Cc4ccccc4F)c(C)c(-c4cc(Cl)cc(Cl)c4)c(=O)n3c2CN(C)CCc2ccccn2)cc1 | –
17 | 140 | COc1ccc(-c2nc3n(Cc4ccccc4F)c(C)c(-c4cccc(C(F)(F)F)c4)c(=O)n3c2CN(C)CCc2ccccn2)cc1 | –
18 | 56 | COc1ccc(-c2nc3n(Cc4ccccc4F)c(C)c(-c4cccc(S)c4)c(=O)n3c2CN(C)CCc2ccccn2)cc1 | –
19 | 79 | COc1ccc(-c2nc3n(Cc4ccccc4F)c(C)c(-c4cccc(F)c4)c(=O)n3c2CN(C)CCc2ccccn2)cc1 | –
20 | 65 | COc1ccc(-c2nc3n(Cc4ccccc4F)c(C)c(-c4ccccc4OC)c(=O)n3c2CN(C)CCc2ccccn2)cc1 | –
21 | 4.6 | COc1ccc(-c2nc3n(Cc4ccccc4F)c(C)c(-c4cccc(OC)c4)c(=O)n3c2CN(C)CCc2ccccn2)cc1 | –
22 | 2500 | COc1ccc(-c2nc3n(Cc4ccccc4F)c(C)c(Br)c(=O)n3c2CN(C)CCc2ccccn2)cc1 | –
23 | 110 | COc1ccc(-c2nc3n(Cc4ccccc4F)c(C)c(-c4ccc(OC)c(OC)c4)c(=O)n3c2CN(C)CCc2ccccn2)cc1 | –
